The target in experiment [1] is T1, human metabotropic glutamate receptor 2 (mGluR2) (Homo sapiens, UniProt Q14416).
T1 construct: expressed in transfected cells; co-expressing human SLC1A3), cell membrane fraction
Nature of the experiment: [35S]GTPγS binding assay (Affinity to mGluR2). As to conditions: cell membrane fraction of HEK293 cells stably expressing human mGluR2; glutamic acid 10 μM. It counts as biochemical. How it is done: (Preparation of Cell Membrane Fraction of HEK293 Cells Stably Expressing Human Metabotropic Glutamate Receptor 2 (mGluR2))
HEK293 cells stably expressing human mGluR2 and human glutamate transporter SLC1A3 were cultured in a Dulbecco's modified Eagle's medium with 10% fetal bovine serum (50 units/mL of penicillin, 50 μg/mL of streptomycin, 60 μg/mL of geneticin, 400 μg/mL of hygromycin B and 2 mM of glutamine) at 37° C. under 5% CO2. Confluent cell cultures were washed twice with PBS(−), and then scraped off with a cell scraper, and subjected to centrifugal separation at 4° C. and 1500 rpm for 5 minutes for collecting cells. The centrifuged sediment (cell pellet) was homogenized in a 20 mM HEPES buffer containing 10 mM EDTA (pH 7.4) by using sonicator and centrifuged at 4° C. and 1500×g for 30 minutes. The supernatant (soluble fraction) was subjected to the centrifugal separation at 4° C. and 40,000×g for 30 minutes, and thus, insoluble fraction was obtained. After additional centrifugally washing the obtained fraction with 20 mM HEPES buffer containing 10 mM EDTA (pH 7.4), the pellet was centrifugally suspended with a 20 mM HEPES buffer containing 0.1 mM EDTA, and the cell membrane fraction was obtained by the centrifugal separation at 4° C. and 40,000×g for 30 minutes. The thus obtained cell membrane fraction was suspended in a 20 mM HEPES buffer containing 0.1 mM EDTA in a protein concentration of 3 mg/mL, which was stored at −80° C.
([^35S]GTPγS binding assay)
The frozen cell membrane fraction prepared as described above was thawed before use, and the resultant was diluted with a buffer for a binding assay (final concentrations: 20 mM HEPES, 100 mM NaCl, 1 mM MgCl2, 3 μM GDP, 300 μg/mL saponin, 0.1% BSA). The compound of each example was added to a cell membrane fraction containing 1.8 to 3 μg/assay of membrane protein on a plate, followed by incubation at room temperature for 30 minutes. Thereafter, with glutamic acid (in a final concentration of 10 μM) added thereto, incubation was performed at room temperature for 15 minutes, and thereafter, [^35S]GTPγS (in a final concentration of 0.8 kBq) and 588 μg WGA-SPA beads were added thereto, followed by incubation at room temperature for 1 hour. After the incubation, the plate was subjected to the centrifugal separation at 2,500 rpm and room temperature, and then, membrane cell binding radioactivity was measured with a top count.
A [^35S]GTPγS binding amount obtained by performing the above-described reaction in the absence of glutamic acid was defined as nonspecific binding, and a difference from a [^35S]GTPγS binding amount obtained in the presence of glutamic acid was defined as specific binding. On the basis of ratios of inhibiting the specific binding at various concentrations of the compounds of the respective examples, inhibition curves were obtained. Concentrations of the compounds of the respective examples at which the specific [^35S]GTPγS binding amount was suppressed by 50% (IC50 values) were calculated on the basis of the inhibition curves and shown in Table 3.
On the technique in general: GTPγS is a poorly hydrolysed GTP analogue; its binding reports G protein activation.

The subject of experiment [2] is Long-Evans rats, cognitive impairment induced by scopolamine. The experiment in a line: Novel object recognition (NOR) test in rats. It counts as in vivo, rat. As to conditions: oral; scopolamine hydrobromide 0.3 mg/kg i.p.; statistically significant difference in discrimination index vs scopolamine alone group. How it is done: Six-week old male Long-Evans rats were used for this test. For 2 days before starting the test, the rats were acclimated to experimental operations such as administration and a test device (that is, a black or gray plastic cage with a width of 40 cm, a depth of 30 cm and a height of 45 cm). Each test compound was dissolved in a 0.1 N hydrochloric acid to be orally administered. Thirty minutes after the administration, scopolamine hydrobromide was intraperitoneally administered at a 0.3 mg/kg dose, so as to induce cognitive impairment. After another 30 minutes, each rat was acclimated in the test device for 3 minutes, and thereafter, two blocks in the same shape were put in the test device as acquisition trial, and exploring time for each block was measured for 5 minutes. Two hours after the acquisition trial, the rat was acclimated in the test device for 3 minutes, and thereafter, the same block as those used in the acquisition trial and a new block in a different shape were put in the cage for retention trial. The exploring time for each block was measured for 3 minutes, and a ratio of the exploring time for the newly used block to the sum of the exploring times for the respective blocks was calculated as a discrimination index. The thus obtained discrimination indexes were compared among a group of rats to which a medium alone was administered (medium group), a group of rats to which scopolamine alone was administered (scopolamine alone group) and a group of rats to which both the test compound and scopolamine were administered, so as to evaluate the action of the test compound on the novel object recognition function (cognitive function) of the rats.
Each discrimination index was shown as an average and a standard error. The statistical significance between the medium group and the scopolamine alone group was analyzed by the independent t-test. The statistical significance between the scopolamine alone group and each sample group was analyzed by one-way analysis of variance and then by Dunnett's multiple comparison test. The significance level was set to 5% on both sides. […] The analysis was carried out by using Prism 5 for Windows for Japanese, ver. 5.03. A minimum effective dose at which a statistically significant difference was found between a group suffering from the cognitive impairment induced by scopolamine and a group treated with each compound is shown in Table 4.

T1 sequence (Q14416 19-872): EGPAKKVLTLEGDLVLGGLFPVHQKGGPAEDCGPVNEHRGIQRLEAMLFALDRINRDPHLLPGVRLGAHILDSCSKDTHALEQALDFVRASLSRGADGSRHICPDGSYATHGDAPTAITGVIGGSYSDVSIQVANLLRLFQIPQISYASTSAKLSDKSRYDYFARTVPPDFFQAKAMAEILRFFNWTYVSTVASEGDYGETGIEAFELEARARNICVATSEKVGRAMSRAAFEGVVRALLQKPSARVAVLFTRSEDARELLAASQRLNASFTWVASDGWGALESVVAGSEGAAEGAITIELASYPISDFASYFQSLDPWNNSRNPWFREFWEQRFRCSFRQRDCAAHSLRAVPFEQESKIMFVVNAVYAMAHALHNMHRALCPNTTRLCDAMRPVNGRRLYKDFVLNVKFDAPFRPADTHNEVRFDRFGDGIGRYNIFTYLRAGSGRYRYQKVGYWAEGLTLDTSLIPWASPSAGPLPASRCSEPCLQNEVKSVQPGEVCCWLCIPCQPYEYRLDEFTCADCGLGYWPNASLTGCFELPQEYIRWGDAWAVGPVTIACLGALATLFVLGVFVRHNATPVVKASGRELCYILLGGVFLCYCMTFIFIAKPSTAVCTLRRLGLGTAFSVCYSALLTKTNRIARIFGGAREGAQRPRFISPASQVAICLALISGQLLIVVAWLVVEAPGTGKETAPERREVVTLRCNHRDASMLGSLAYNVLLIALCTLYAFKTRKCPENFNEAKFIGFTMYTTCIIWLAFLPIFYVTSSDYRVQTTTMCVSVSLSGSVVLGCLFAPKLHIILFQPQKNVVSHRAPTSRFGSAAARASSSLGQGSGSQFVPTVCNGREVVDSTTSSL

By IC50 is commonly meant the concentration at which inhibition is half-maximal. The low end stands for inhibition by little substance, the high end for a need for much substance. With `COc1ccc(-c2nc(-c3ccc(S(=O)(=O)NC(C)(C)C)cc3)c3n2C[C@@H](CF)OCC3)cc1` [Example 2, (S)—N-(tert-butyl)-4-(6-(fluoromethyl)-3-(4-methoxyphenyl)-5,6,8,9-tetrahydroimidazo[1,5-d][1,4]oxazepin-1-yl)benzenesulfonamide], the IC50 in experiment [1] is 3.1 nM. In addition, the Minimum effective dose in experiment [2] is listed as 3 mg/kg, p.o.

With `COc1ccc(-c2nc(-c3ccc(S(=O)(=O)NC4CCC4)cc3)c3n2C[C@@H](C)OCC3)cc1` [Example 3, (R)—N-cyclobutyl-4-(3-(4-methoxyphenyl)-6-methyl-5,6,8,9-tetrahydroimidazo[1,5-d][1,4]oxazepin-1-yl)benzenesulfonamide], the IC50 in experiment [1] turned out to be 5 nM. For the same compound, the Minimum effective dose in experiment [2] is 1 mg/kg, p.o.
